In US9248162B2, “Factor H for treatment of rheumatoid arthritis” (Baxter International Inc., priority 2013, dated 2016):
Where “and” joins values, the source holds several entries; their conditions need not be identical. Identical values can stand only once.

Experiments:
[1] = system: collagen antibody-induced arthritis; assay: Mouse CAIA: ankle histology scores (H & E); format: in vivo, Balb C mice; design: key to Score From H & E: Inflammation: 0: normal; 1: minimal infiltration of inflammatory cells in periarticular tissue; 2: mild infiltration; 3: moderate infiltration with moderate edema; 4: marked infiltration with marked edema; 5: severe infiltration with severe edema; key to Exostosis, Summary (significance) / Composite, Summary (significance) / Pannus, Summary (significance) / Cartilage, Summary (significance) / Inflammation, Summary (significance): ns: = not significant; *: = P < 0.05; **: = P < 0.01; ***: = P < 0.001; Composite Biohistopathology Score, group value / Composite Biohistopathology Score: scale not given here
Protocol: (§1) Balb C mice (n=10 per cohort) were used to determine the efficacy of Factor H (FH) during […]. The mice were treated with ArthritoMAb (anti-collagen) antibody cocktail (2 mg, i.v.) on day 1, followed 7 days later with an injection of LPS (50 μg, i.p.). On day 8, hind paw volumes were measured for each animal and distributed to various treatment groups.
(§2) Dosing with the different agents was started on day 8 as described in Table 3.
(§3) Hind paw volumes were measured on day 8, 11, 12, 13, 15, 19 and 22 (endpoint). The age at start date was 7 to 9 weeks. Body weights were measured bi-weekly to the endpoint (Table 4). At the endpoint, tissue samples were processed for histology and submitted to a pathologist for independent analysis. Sampling 1 was performed at the endpoint. The hind limbs were preserved in 10% formalin. Sampling 2 was performed at the endpoint for group 4 animals. Blood was collected by terminal cardiac puncture. The blood was processed for anti-coagulant. The kidneys were additionally preserved in formalin and followed with 70% EtOH. Samples were scored for inflammation, pannus (granulation tissue), cartilage damage, bone resorption and exostosis (Table 5).

[2] = system: collagen antibody-induced arthritis; assay: Mouse CAIA: hind paw / footpad volume (swelling, disease burden); format: in vivo, Balb C mice; design: Mean Disease Burden / Total Disease Burden (AUC) / Hind Limb Volume, Mean Diff. / Total Disease, Mean Diff.: unit not given here
Protocol: as §1
(§4) Factor H was formulated in 20 mM Citrate, 150 mM NaCl, pH=6. […] Ethanercept was formulated as Enbrel™ in saline. Vehicle was formulated in 20 mM Citrate, 150 mM NaCl, pH=6. […] The dosing volume for Factor H and BX12 was 25 mL/kg (0.500 mL/20 g mouse) and adjusted accordingly for body weight.
as §2
as §3, with “The” for “Hind paw volumes were measured on day 8, 11, 12, 13, 15, 19 and 22 (endpoint). The”

[3] = system: collagen antibody-induced arthritis; assay: Mouse CAIA: clinical score; format: in vivo, Balb C mice
Protocol: The mice were treated with ArthritoMAb (anti-collagen) antibody cocktail (2 mg, i.v.) on day 1, followed 7 days later with an injection of LPS (50 μg, i.p.). On day 8, hind paw volumes were measured for each animal and distributed to various treatment groups.
as §4, §2

[4] = Mouse CAIA: body weight and tolerability; format: in vivo, Balb C mice; details: mouse, in vivo
Protocol: as §1, §2, §3

[5] = system: collagen antibody-induced arthritis; assay: Mouse CAIA: ankle histology scores (H & E); format: in vivo, Balb C mice; design: key: 0: normal; 1: minimal infiltration of pannus in cartilage and subchondral bone; 2: mild infiltration; 3: moderate infiltration; 4: marked infiltration; 5: severe infiltration; details: individual animal, score 0-5, endpoint day 22, listed as Group 2
Protocol: as §1, §2, §3

[6] = system: collagen antibody-induced arthritis; assay: Mouse CAIA: ankle histology scores (H & E); format: in vivo, Balb C mice; design: key: 0: normal; 1: minimal infiltration of inflammatory cells in periarticular tissue; 2: mild infiltration; 3: moderate infiltration with moderate edema; 4: marked infiltration with marked edema; 5: severe infiltration with severe edema; details: individual animal
Protocol: as §1, §2, §3

[7] = system: kidney allografts in pre-sensitized recipients; assay: Kidney allograft survival in pre-sensitized recipients, RAPA / FK506 / CFH (Example 2); format: in vivo, C57BL/6 (B6) mice
Text: Male C3H (H-2k) and C57BL/6 (B6, H-2b) mice (25-30 g) were used to determine the efficacy of Rapamycin (RAPA) in combination with Factor H (FH) during transplant rejection. C3H mice served as skin graft and kidney donors for pre-sensitization and kidney transplantation. Male C57BL/c (B6) mice were used as recipients. The B6 recipients were pre-sensitized by transplantation of the donor skin grafts, and were subsequently transplanted with kidney allografts between 15 and 20 days after the skin transplantation. […]
Mice were monitored daily for signs of rejection and were euthanized at the end point of the experiment, which was defined as when transplants developed functional deterioration due to severe rejection or on POD60 and POD100. Renal graft function was monitored by plasma creatinine (Cr) blood urea nitrogen (BUN) and hematocrit (Hct) levels by an I-Stat potable analyzer (Abaxis). Circulating donor specific antibodies (DSAs) were determined prior to kidney transplantation and at the endpoint of study by flow cytometry.

[8] = histopathology score, graded 1-5, hind limbs at endpoint, group value
[9] = Vehicle vs agent, Dunnett's Multiple Comparison Test
[10] = Vehicle vs agent, Dunn's Multiple Comparison Test
[11] = ankle, group mean ± spread, 10 animals, score 0-5

Compound: C[C@@H]1C[C@H]2[C@@H]3CCC4=CC(=O)C=C[C@]4(C)[C@@]3(F)[C@@H](O)C[C@]2(C)[C@@]1(O)C(=O)CO [Dex.]
- Composite Score ([1]; histopathology composite, hind limbs at endpoint, group value): 0.2 ± 0.1
- Bone Resorption [1, 8]: 0 ± 0^ns
- Cartilage Damage [1, 8]: 0 ± 0^ns
- Exostosis [1, 8]: 0 ± 0
- Inflammation [1, 8]: 0.1 ± 0.1
- Pannus [1, 8]: 0.1 ± 0.1^ns

Compound: C[C@@H]1C[C@H]2[C@@H]3CCC4=CC(=O)C=C[C@]4(C)[C@@]3(F)[C@@H](O)C[C@]2(C)[C@@]1(O)C(=O)CO [Dexamethasone]
- Hind Limb Volume, Summary (significance) [2, 9]: *** (= P < 0.001)
- Total Disease, Summary (significance) [2, 9]: *** (= P < 0.001)
- Hind paw volume ([2]; day 8 of study, group mean, n 10): 0.35 mL
- Hind paw volume ([2]; day 8 of study, individual animal): 0.42 mL and 0.39 mL (2×) and 0.37 mL and 0.35 mL and 0.34 mL and 0.33 mL and 0.31 mL (2×) and 0.3 mL
- Hind paw volume ([2]; day 11 of study, group mean, n 10): 0.32 mL
- Hind paw volume ([2]; day 11 of study, individual animal): 0.38 mL and 0.34 mL and 0.32 mL (3×) and 0.3 mL (3×) and 0.35 mL and 0.31 mL
- Hind paw volume ([2]; day 12 of study, group mean, n 10): 0.34 mL
- Hind paw volume ([2]; day 12 of study, individual animal): 0.34 mL (4×) and 0.28 mL and 0.35 mL and 0.32 mL and 0.31 mL and 0.39 mL and 0.37 mL
- Hind paw volume ([2]; day 13 of study, group mean, n 10): 0.33 mL
- Hind paw volume ([2]; day 13 of study, individual animal): 0.31 mL (2×) and 0.3 mL (2×) and 0.36 mL and 0.35 mL (2×) and 0.33 mL and 0.38 mL and 0.29 mL
- Hind paw volume ([2]; day 16 of study, group mean, n 10): 0.31 mL
- Hind paw volume ([2]; day 16 of study, individual animal): 0.37 mL and 0.33 mL and 0.29 mL (3×) and 0.38 mL and 0.26 mL and 0.3 mL (2×) and 0.27 mL
- Hind paw volume ([2]; day 19 of study, group mean, n 10): 0.34 mL
- Hind paw volume ([2]; day 19 of study, individual animal): 0.35 mL (4×) and 0.28 mL and 0.3 mL (2×) and 0.38 mL and 0.37 mL and 0.32 mL
- Hind paw volume ([2]; day 22 of study, group mean, n 10): 0.33 mL
- Hind paw volume ([2]; day 22 of study, individual animal): 0.39 mL and 0.42 mL and 0.3 mL and 0.32 mL and 0.29 mL (2×) and 0.35 mL (2×) and 0.31 mL and 0.26 mL
- % Disease Suppression ([2]; days 8-22, individual animal): 95.1%
- Total Disease Burden (AUC) ([2]; days 8-22, individual animal): −0.56 and −0.05
- Clinical Score, Summary (significance) [3, 10]: *** (= P < 0.001)
- Clinical Score, Day of Study 8, Mean ([3]; group mean, n=10, day 8 (start of dosing)): 4.00
- Clinical Score, Day of Study 11, Mean ([3]; group mean, n=10, day 11): 0.10
- Clinical Score, Day of Study 12, Mean ([3]; group mean, n=10, day 12): 5.70
- Clinical Score, Day of Study 13, Mean ([3]; group mean, n=10, day 13): 6.00
- Clinical Score, Day of Study 16, Mean ([3]; group mean, n=10, day 16 (Jul. 1, 2011)): 0.00
- Clinical Score, Day of Study 19, Mean ([3]; group mean, n=10, day 19): 0.00
- Clinical Score, Day of Study 22, Mean ([3]; group mean, n=10, day 22 (endpoint)): 0.00
- Clinical Score, Day of Study 8 ([3]; individual animal, score 0-60, day 8 (start of dosing)): 5 (2×) and 10 (3×) and 0 (5×)
- Clinical Score, Day of Study 11 ([3]; individual animal, score 0-60, day 11): 0 (9×) and 1
- Clinical Score, Day of Study 12 ([3]; individual animal, score 0-60, day 12): 0 (3×) and 10 (4×) and 5 (2×) and 7
- Clinical Score, Day of Study 13 ([3]; individual animal, score 0-60, day 13): 0 (4×) and 10 (6×)
- Clinical Score, Day of Study 16 ([3]; individual animal, score 0-60, day 16 (Jul. 1, 2011)): 0
- Clinical Score, Day of Study 19 ([3]; individual animal, score 0-60, day 19): 0
- Clinical Score, Day of Study 22 ([3]; individual animal, score 0-60, day 22 (endpoint)): 0
- Cartilage, Summary (significance) [1, 10]: ns
- Composite, Summary (significance) [1, 10]: * (= P < 0.05)
- Exostosis, Summary (significance) [1, 10]: ** (= P < 0.01)
- Inflammation, Summary (significance) [1, 10]: ** (= P < 0.01)
- Pannus, Summary (significance) [1, 10]: ns
- Composite Biohistopathology Score, group value ([1]; ankle, group mean ± spread, 10 animals): 0.2 ± 0.1
- Score From H & E: Bone Resorption, group value [1, 11]: 0.0 ± 0.0
- Score From H & E: Cartilage Damage, group value [1, 11]: 0.0 ± 0.0
- Score From H & E: Inflammation, group value [1, 11]: 0.1 ± 0.1
- Score From H & E: Pannus, group value [1, 11]: 0.1 ± 0.1
- Score From H & E: Periosteal/Exostotic Changes, group value [1, 11]: 0.0 ± 0.0
- Composite Biohistopathology Score ([1]; ankle, individual animal, endpoint day 22, listed as Group 2): 1 (2×) and 0 (8×)
- Score From H & E: Inflammation ([1]; ankle, individual animal, score 0-5, endpoint day 22, listed as Group 2): 0 (9×) and 1
- Mean Body Weigh at Nadir [4]: −7.7%
- Score From H & E: Pannus [5]: 1
- Score From H & E: Bone Resorption ([6]; score 0-5, endpoint day 22): 0
- Score From H & E: Cartilage Damage ([6]; score 0-5, endpoint day 22): 0
- Score From H & E: Periosteal/Exostotic Changes ([6]; score 0-5, endpoint day 22): 0
- Score From H & E: Pannus ([6]; score 0-5, endpoint day 22, listed as Group 2): 0

Compound: CO[C@H]1C[C@@H]2CC[C@@H](C)[C@@](O)(O2)C(=O)C(=O)N2CCCC[C@H]2C(=O)O[C@H]([C@H](C)C[C@@H]2CC[C@@H](O)[C@H](OC)C2)CC(=O)[C@H](C)/C=C(\C)[C@@H](O)[C@@H](OC)C(=O)[C@H](C)C[C@H](C)/C=C/C=C/C=C/1C [RAPA, Rapamycin]
- Survival ([7]; individual graft survival, one value per graft): 8 days (2×) and 37 days and 10 days and 11 days and 12 days and 22 days and 14 days and 16 days and 20 days
- MST ([7]; mean survival time of cohort, untreated controls 8 days): 14 days
